Measurements published in patent US11609238B2, “Method for detecting a radical compound derived from a lipid and a compound derived from the radical compound” (FUSO PHARMACEUTICAL INDUSTRIES, LTD., priority 2017, dated 2023).

Columns and labels:
[1] = Reactivity of NBD-nitroxide with reactive oxygen species by fluorometry; conditions: hydrogen peroxide, hypochlorous acid
Procedure: (§1) In order to investigate reaction selectivities of the above three types of NBD-nitroxide (NBD-Me, NBD-Et and NBD-Pen), reactivities with various ROS and lipid radical were evaluated by fluorometry. […] In addition, in the reaction with these compounds, no significant difference in fluorescence intensity was observed between these nitroxides, and there was no difference between the 2nd and 6th position substituents.

[2] = Reactivity of NBD-nitroxide with lipid radicals by fluorometry; conditions: for fluorescence intensity on reaction with lipid radical: lipid radical produced using lipoxygenase (LOX) for LA, ALA or AA, FIG. 3
Procedure: as §1

[3] = system: MDA, ALT (GPT), IL-6 in liver extracts of DEN-administered rats; test: Liver lipid peroxidation, hepatic injury and inflammatory markers after DEN administration; assay type: in vivo, rats (F344); conditions: rat liver extract 24 h after DEN 100 mg/kg i.p.; 500 μM solution at 4 ml/kg 1 h after DEN; vs DEN group; FIG. 5
Procedure: (§2) Six week-old male rats (F344) were divided into 4 groups, and as a control, rats in Group 1 were administered with saline (PBS) by intraperitoneal injection. Rats in Groups 2-4 were administered with DEN at 100 mg/kg by intraperitoneal injection.
(§3) One hour after DEN administration, physiological saline was administered to rats in Group 2 by intraperitoneal injection, rats in Group 3 were administered with a 500 μM OH-Pen solution at 4 ml/kg, and rats in Group 4 were administered with a 500 μM OH-Pen-NOMe solution at 4 ml/kg.
Twenty-four hours after DEN administration, livers were excised from rats in the respective groups and lipid extraction was carried out. For extracts, amounts of malondialdehyde; MDA as a peroxidized lipid marker, alanine transaminase (glutamate pyruvate transferase; ALT (GPT)) as a hepatic injury marker, and interleukin-6; IL-6 as an inflammatory marker were measured.

hepatocellular carcinoma = test: Hepatocellular carcinogenesis three months after DEN administration, number of tumor foci; assay type: in vivo, rats (F344); conditions: rats three months after DEN 100 mg/kg i.p.; 500 μM solution at 4 ml/kg 1 h after DEN; FIG. 6
Procedure: as §2, §3
Three months after DEN administration, rats in the respective groups were subjected to mixed anesthesia of 3 species, and they were sacrificed and livers were taken out promptly. Photographs of the livers taken from the rats of the respective groups are shown in FIG. 6, and the result of counting the number of tumor foci is shown in FIG. 6b.

[4] = system: human umbilical vein endothelial cell (HUVEC); test: Cytotoxicity of NBD-nitroxide, viable cell count; assay type: cell-based; conditions: viable cells after incubation for 24 hours
Procedure: Cytotoxicity of NBD-nitroxide was evaluated using human umbilical vein endothelial cell (HUVEC). When each concentration of the compound was added to HUVEC and the number of viable cells after incubation for 24 hours was counted, cytotoxicity was not observed up to 10 μM in any NBD-nitroxide.

[5] = Scavenging of lipid radicals in hepatocellular carcinoma model mouse, LC/FL/MS of liver lipid extract; assay type: in vivo, mice (C57BL/6J)
Procedure: It is appropriately selected according to the present invention, but not limited to, HPLC analysis is performed in this Example by injecting 10 μL of a sample solution into an InertSusteain® C18 analytical column (filled with ES silica having a particle size of 3 μm, 2.0×150 mm) manufactured by Mitsubishi Chemical Corporation, which is eluted with a mobile phase (A: 5.0 mM ammonium acetate in H2O, B:ACN:H2O (95:5)) at 40° C. at a rate of 0.4 ml/min. The time program of mobile phase elution was set to B %: 0 to 22 min; 60%, 22 to 60 min; 80%, 60 to 70 min; 100%.
For each fraction eluted, fluorescence observation from NBD-Pen was performed at excitation wavelength (470 nm) and emission wavelength (530 nm) with a fluorescence detector (RF-20A xs manufactured by Shimadzu Corporation).
Next, each fraction thus obtained was introduced into an ion detector (Q Exactive™ Hibrid Quadrupole-Orbitrap™ MS manufactured by Thermo Fisher Scientific Co., Ltd.) by electrospray ionization (ESI) and subjected to mass spectrometry.
Male mice (C57BL/6J) at 8 weeks of age were divided into two groups. As a control, physiological saline (PBS) was administered to mice in Group 1 by intraperitoneal injection. DEN at 100 mg/kg was administered to mice in Group 2 by intraperitoneal injection.
Four hours after DEN administration, a 500 μM NBD-Pen solution was administered at 4 ml/kg to mice in Groups 1 and 2 by intraperitoneal injection.
Fifteen minutes after administration of NBD-Pen, livers were excised from the mice in the respective groups and lipid extraction was performed. LC/FL/MS analysis was performed on extracts under the same conditions as in Example 1. The structure of the radical adduct was analyzed by comparing the fluorescence peak observed at the LC/FL site with the precise mass analysis result at that column retention time. The results are described in Table 2 and FIG. 11.

[6] = superoxide anion radical, hydroxy radical or nitric oxide, FIG. 3
[7] = Gr. 1, no DEN (PBS), mouse liver 15 min after 500 μM NBD-Pen 4 ml/kg i.p.
[8] = Gr. 2, DEN 100 mg/kg i.p., NBD-Pen 500 μM 4 ml/kg i.p. 4 h after DEN, liver 15 min later

Compound | fluorescence on reaction with reactive oxygen species [1, 6] | fluorescence intensity on reaction with lipid radical [2] | alanine transaminase ALT (GPT), hepatic injury marker [3] | interleukin-6 (IL-6), inflammatory marker [3] | malondialdehyde (MDA), peroxidized lipid marker [3] | hepatocellular carcinogenesis (number of tumor foci) (hepatocellular carcinoma) | other results
CCC1(CC)CC(Nc2ccc([N+](=O)[O-])c3nonc23)CC(CC)(CC)N1[O] [NBD-Et] | fluorescence did not increase much | significantly elevated | – | – | – | – | –
CC1(C)CC(Nc2ccc([N+](=O)[O-])c3nonc23)CC(C)(C)N1[O] [NBD-Me] | fluorescence did not increase much | significantly elevated | – | – | – | – | –
CCCCCC1(C)CC(O)CC(C)(C)N1[O] (centres unmarked) [OH-Pen, 4-hydroxy-2,2,6-trimethyl-6-pentylpiperidine-1-oxyl] | – | – | significantly decreased | significantly decreased | significantly decreased | suppressed hepatocellular carcinogenesis | –
2,2,6-trimethyl-4-(4-nitrobenzo[1,2,5]oxadiazol-7-ylamino)-6-pentylpiperadine-1-oxyl [NBD-Pen] | fluorescence did not increase much | significantly elevated | – | – | – | – | fluorescence on reaction with reactive oxygen species ([1]; superoxide anion radical or hydroxy radical, FIG. 4): fluorescence did not increase much; reactivity with the lipid radicals and thermal stability of nitroxide-lipid complex, comparison among Compounds A to C [2]: predominant; fluorescence intensity on reaction with lipid radicals ([2]; LA, ALA, AA activated with LOX, AAPH or MeO-AMVN, FIG. 4): remarkably increased; concentration up to which cytotoxicity was not observed [4]: > 10 µM; Fluorescent intensity of NBD-Pen-R (a.u.) R [5, 7]: 29.72 a.u.; Fluorescent intensity of NBD-Pen-R (a.u.) R C2H5 [5, 7]: 72.95 a.u.; Fluorescent intensity of NBD-Pen-R (a.u.) R C3H7 [5, 7]: 143.69 a.u.; Fluorescent intensity of NBD-Pen-R (a.u.) R C5H11 [5, 7]: 393.38 a.u.; Fluorescent intensity of NBD-Pen-R (a.u.) R [5, 8]: 353.94 a.u.; Fluorescent intensity of NBD-Pen-R (a.u.) R C2H5 [5, 8]: 704.15 a.u.; Fluorescent intensity of NBD-Pen-R (a.u.) R C3H7 [5, 8]: 1604.07 a.u.; Fluorescent intensity of NBD-Pen-R (a.u.) R C5H11 [5, 8]: 3511.72 a.u.
CCCCCC1(C)CC(O)CC(C)(C)N1OC (centres unmarked) [OH-Pen-NOMe, 4-hydroxy-1-methoxy-2,2,6-trimethyl-6-pentylpiperidine-1-oxyl] | – | – | almost no drop | almost no drop | almost no drop | not suppressed at all | –
